From patent US20250057951A1, “DISCERNIBLE CELL SURFACE PROTEIN VARIANTS OF CD117 FOR USE IN CELL THERAPY” (UNIVERSITÄT BASEL, priority 2021, published 2025)
Substitutions are numbered along the chain they refer to. Names and notes keep the numbering of the source. “Also recorded” adds a separate entry of the source.

What was measured:
antibody Refmab #1 [1] = test: Octet titration, steady state KD of CD117 D1-2-3 variants to Refmab #1; type: binding; details: for Kd: 7 concentrations 2000-5 nM, steady state, two individual experiments
Protocol: To further characterize binding of Refmab #1 to CD117 D1-2-3 variants E73K, E73L, E73R, E73Y, D121H, D121K, S123K and S123F, the analytes were titrated at 7 different concentrations (from 2000 nM to 5 nM). Antibody Refmab #1 was captured by AHC biosensors for 300 s at 0.5 to 1 μg/mL. Association and dissociation to Refmab #1 was extended to 600 s and 1000 s, respectively. Steady state analysis was performed.

TF-1 cells = test: SCF-dependent proliferation, SCF titration on TF-1 cells with CD117 variants (CellTiter-Glo); type: cell-based, human; details: for EC50 Average: average of two experiments; for EC50 Experiment #1 / EC50 Experiment #2: titration of SCF, 3 days, TF-1 cells with the CD117 variant
Protocol: In another experiment, SCF-dependent proliferation of variants E73K, E73Y, D121K, S123F and S123K was compared against wildtype CD117. TF-1 cells were seeded at a cell concentration of 150 000 cells/ml in sterile, white cell culture treated plates with transparent bottom in RPMI+GlutaMax+10% FCS. Cells were treated with a titration of SCF. After 3 days of incubation a CellTiter-Glo 2.0 assay (Promega) was performed, luminescence was read in a luminometer (Envision plate reader) and EC50's was determined. Two different experiments with triplicates in each experiment were performed.

Refmab #1 = Refmab #1 titration on engineered TF-1 cells (flow cytometry); type: binding; details: 5-0.00015 μg/mL antibody; 4° C.
Protocol: Binding of Refmab #1 was assessed in a flow cytometry assay. TF-1 cells were seeded at a cell concentration of 1,000,000 cells/ml in FACS Buffer (PBS+2% FCS+1 mM EDTA). After a Fc blocking using 1:20 diluted TruStain (BioLegend, #422302) in FACS buffer for 15 minutes at 4° C., cells were washed twice with FACS buffer. Subsequently, a SR-1 titration was added to the cells using 5-0.00015 μg/mL antibody for 30 minutes at 4° C. on a plate shaker. Cells were washed twice with FACS buffer and a secondary labelled antibody (IgG (H+L) Cross-Adsorbed Goat anti-Human, Alexa Fluor® 488, Invitrogen, A11013) was added to the cells for 30 minutes at 4° C. on a plate shaker. Cells were washed twice with FACS buffer, before adding 1:100 diluted solution of 7AAD staining (cell viability) in FACS buffer for a couple of minutes and analyzing the cells using the Novocyte Quanteon (Agilent).

antibody Refmab #1 [2] = test: Octet screen: binding of CD117 D1-2-3 variants to captured Refmab #1; details: nm shift at end of association, top analyte concentration (500 nM)
Protocol: (§1) A more sophisticated analysis of binding to the elected variants was performed with antibody Refmab #1. Binding of Refmab #1 to wt and variants (analyte) was measured in an Octet system RED96e or R8 at 25° C. with shaking at 1,000 rpm using 1× kinetic buffer (Sartorius, PN: 18-1105). First, the elected variants were screened for their ability to bind Refmab #1 using three different concentrations of analytes. Antibody Refmab #1 was captured by Anti-Human Fc capture biosensor (AHC) (Sartorius, PN: 18-5060) for 300 s at 0.5 to 1 μg/mL. As an analyte, human CD117 wt and variants, containing only domains 1, 2 and 3 (CD117 D1-2-3), was titrated at 500 nM, 50 nM and 5 nM. Association and dissociation of the analyte to Refmab #1 was monitored for 300 s and 900 s, respectively. Reference subtraction was performed against buffer only wells. AHC tips were regenerated using 10 mM Gly-HCl pH 1.7. Data were analyzed using the Octet Data Analysis software HT 12.0. Data were fitted (when possible) to a 1:1 binding model. Kinetic rates ka and […] globally fitted. Binding level of the elected variants were compared to wild type and are shown as percent in FIG. 7. For this qualitative analysis, the binding level of the top analyte concentration at end of the association step was used.

human wild-type CD117 = human wild-type CD117 (human, UniProt P10721 26-976); test: cell-based or functional assay
CD117 = test: Blocking of SCF-induced CD117 phosphorylation (Tyr719 ELISA), wild type TF-1 cells; type: cell-based, human; details: 0.5 ug/mL antibody or 500 nM avapritinib; 100 ng/ml SCF 5 minutes
Protocol: (§2) SCF-dependent phosphorylation is another function of CD117. SCF-dependent phosphorylation was measured using TF-1 cells expressing CD117 (as shown in previous experiments). TF-1 cells were seeded at a concentration of 1 million cells/ml in 1 ml of Medium (RPMI1640 supplemented with GlutaMAX+10% heat inactivated FBS) in a 6-well plate. Cells were treated with 0.5 ug/mL antibody or 500 nM avapratinib. Cells were then treated with 100 ng/ml recombinant human SCF (1 mg/ml PeproGMP® Recombinant Human SCF) for 5 minutes, before cell collection. Cells were washed with ice-cold PBS, before resuspending cells in 250 μL Lysis Buffer (Lysis buffer from Signaling containing Protease Inhibitor and Phosphatase Inhibitor). Cells were flash frozen in liquid nitrogen and thawed at 37° C. twice, before freezing them at −80° C. until further usage. Undiluted samples were thawed and processed according to the manufacturers protocol for the PathScan® Phospho-c-Kit (Tyr719) Sandwich ELISA Kit (Cell Signaling). Absorbance (OD_450 nm) was assessed using the Envision (Perkin Elmer).
(§3) TF-1 cells (wild type, and variants E73K, E73Y, D121K, S123F and S123K of CD117) were seeded at a concentration of 1 million cells/mL in 2 ml of Medium (RPMI1640 supplemented with GlutaMAX+10% heat inactivated FBS) in a 6-well plate. Cells were pre-treated with 0.5 μg/ml of antibodies Refmab #1-Ernie or Refmab #1-Bert for 30 minutes, before adding 100 ng/ml recombinant human SCF (1 mg/mL PeproGMP® Recombinant Human SCF) for 5 minutes. Cells were collected, washed once with ice-cold PBS and resuspended in 500 μL Lysis Buffer (Lysis buffer from Signaling containing Protease Inhibitor and Phosphatase Inhibitor). Cells were then flash frozen in liquid nitrogen and thawed at 37° C. twice, before freezing them at −80° C. until further usage. Undiluted samples were thawed and processed according to the manufacturers protocol for the PathScan Phospho-c-Kit (Tyr719) Sandwich ELISA Kit (Cell Signaling) or the Human c-Kit (CD117) ELISA Kit (Abcam). Absorbance (OD_450 nm) was assessed using the Envision (Perkin Elmer).

variants of CD117 = test: Blocking of SCF-induced CD117 phosphorylation (Tyr719 ELISA), TF-1 cells with CD117 variants; type: cell-based, human; details: 0.5 μg/ml antibody 30 minutes; 100 ng/ml SCF 5 minutes; same for E73K, E73Y, S123F (data not shown)
Protocol: as §2, §3

SCF = target: T1, SCF (Homo sapiens, UniProt P21583); test: Octet: binding of CD117 D1-2-3 variants to SCF; details: CD117 D1-2-3 constructs; steady state
T1 construct: purchased Acros Biosystems SCF-H82E1
Protocol: SCF binding is one function of CD117. SCF binding is important for the transmission of functional signals by CD117. Binding of the elected variants to SCF was measured on an Octet system RED96e or R8 at 25° C. with shaking at 1000 rpm using 1× Kinetic Buffer (Sartorius, PN: 18-1105). […] Domain 1, 2, 3 comprise the binding site for SCF. Domains 4 and 5 were used as a negative, non-binding control.
CD117 D1-2-3 wt and variants thereof are titrated with different concentrations from 1000 to 5 nM. Association was monitored for 300 s and dissociation for 600 s. Binding to human CD117 domain 4 and 5 (CD117 D4-5) was performed under the same conditions as non-binding control. Reference subtraction was performed against buffer only wells. Biosensors were not regenerated and a new set of SA biosensors was used for each analyte. Data were analyzed using the Octet Data Analysis software HT 12.0. Steady state data analysis was performed due to the fast on/off nature of the interaction.

Refmab #3 = test: Octet: binding of CD117 variants to Refmab #3; details: qualitative Octet analysis
Protocol: as §1
(§4) A similar experiment to that in Example 7 was performed, but utilizing Refmab's #2 and #3.

Refmab #2 = test: Octet: binding of CD117 variants to Refmab #2; details: qualitative Octet analysis
Protocol: as §1, §4

Biotinylated Avitag-hSCF = target: T2, Biotinylated Avitag-hSCF (human, UniProt P21583 26-190, limits assumed, biotinylated Avitag); test: BLI (Octet), steady state: biotinylated SCF on streptavidin biosensor, CD117 D1-2-3 variant as analyte; KD relative to WT
T2 construct: Bought reagent; also called hSCF (Acros Biosystems SCF-H82E1)
T2 sequence (P21583 26-190 limits assumed): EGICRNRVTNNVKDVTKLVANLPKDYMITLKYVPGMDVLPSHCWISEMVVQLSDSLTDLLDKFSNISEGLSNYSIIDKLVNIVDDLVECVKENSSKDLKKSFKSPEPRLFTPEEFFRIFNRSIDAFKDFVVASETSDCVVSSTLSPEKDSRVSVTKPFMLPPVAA
Protocol: Association was monitored for 300 s and dissociation for 600 s. […] Reference subtraction was performed against buffer only wells. Biosensors were not regenerated and a new set of SA biosensors was used for each analyte. Data were analyzed using the Octet Data Analysis software HT 12.0. Steady state data analysis was performed due to the fast on/off nature of the interaction.

antibody Refmab #1, sequence (as listed by the source, one chain of several): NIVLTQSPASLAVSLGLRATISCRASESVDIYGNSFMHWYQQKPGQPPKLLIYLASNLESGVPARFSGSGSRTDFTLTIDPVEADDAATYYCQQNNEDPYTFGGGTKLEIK
Refmab #1, sequence (as listed by the source, one chain of several): as above
T1 sequence (P21583 26-273): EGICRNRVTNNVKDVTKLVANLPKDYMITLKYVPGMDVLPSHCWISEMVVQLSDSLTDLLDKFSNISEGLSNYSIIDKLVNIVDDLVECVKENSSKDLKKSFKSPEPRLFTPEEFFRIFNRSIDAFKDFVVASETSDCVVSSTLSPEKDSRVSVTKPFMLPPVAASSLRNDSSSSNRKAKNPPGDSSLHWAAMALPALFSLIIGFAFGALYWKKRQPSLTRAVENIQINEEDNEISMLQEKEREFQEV
Refmab #3, sequence (as listed by the source): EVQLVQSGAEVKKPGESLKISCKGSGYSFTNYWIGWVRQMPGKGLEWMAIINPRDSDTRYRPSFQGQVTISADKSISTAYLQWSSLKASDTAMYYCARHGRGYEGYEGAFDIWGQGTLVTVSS
Refmab #3, sequence (as listed by the source): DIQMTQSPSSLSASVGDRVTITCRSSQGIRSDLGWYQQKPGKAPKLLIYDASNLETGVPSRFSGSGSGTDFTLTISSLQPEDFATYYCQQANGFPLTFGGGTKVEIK

“wild type CD117: wild type human CD117 (SEQ ID No. 1); recombinant D1-2-3 construct or expressed in TF-1 cells [reference compound]” was tested, and the Kd (antibody Refmab #1 [1]) was 1 nM, the “EC50 Average” value (TF-1 cells) was 4.18 ± 0.04 ng/mL and the “EC50 Experiment #1” value (TF-1 cells) was 4.14 ng/mL. The “EC50 Experiment #2” value (TF-1 cells) was 4.22 ng/mL and the “Binding of Refmab #1 to TF-1 cells expressing the CD117 variant” value (Refmab #1) was “bound”.

With “E73Y: variant of human CD117 with substitution E73Y” the “binding to Refmab #1 compared to wild type” value (antibody Refmab #1 [2]) was “particular strong decrease in binding”, the Kd (antibody Refmab #1 [1]) was 691 nM and the “change of KD compared to wild type CD117” value (antibody Refmab #1 [1]; KD variant vs wild type) was “around 700 fold”. For the same molecule, the “EC50 Average” value (TF-1 cells) was 4.01 ± 0.37 ng/mL, the “EC50 Experiment #1” value (TF-1 cells) was 4.37 ng/mL and the “EC50 Experiment #2” value (TF-1 cells) was 3.64 ng/mL. For the same molecule, the “Binding of Refmab #1 to TF-1 cells expressing the CD117 variant” value (Refmab #1) was “completely abolished”.

B1: Refmab #1-Ernie (antibody, V domains shown)
VH: QVQLQQPGAELVKPGASVKMSCKASGYTFTSYNMHWVKQTPGQGLEWIGVIYSGNGDTSYNQKFKGKATLTADKSSSTAYMQINSLTSEDSAVYYCARERDTRFGNWGQGTLVTVSA
VL: EIVLTQSPSSLSASVGDRVTITCRASESVDIYGESFMHWYQQKPGKAPKLLIYLASNLESGVPSRFSGSGSGTDFTLTISSLQPEDFATYYCQQNNEEPYTFGQGTKLEIKR
In the case of B1, the “IC50 in a SCF-dependent proliferation assay on HSPC's” value (human wild-type CD117) is reported as 5.21 ng/mL and the “IC50 in a SCF-dependent proliferation assay on TF-1 cells” value (human wild-type CD117) is reported as 17.6 ng/mL.

B2: Refmab #1-Ernie: improved version of Refmab #1, VH SEQ ID 15, VL SEQ ID 62 (antibody, V domains shown)
VH: B1 VH
VL: EIVLTQSPSSLSASVGDRVTITCRASESVDIYGESFMHWYQQKPGKAPKLLIYLASNLESGVPSRFSGSGSGTDFTLTISSLQPEDFATYYCQQNNEEPYTFGQGTKLEIKRTV
modifications: Refmab #1 VH
B2 was tested, and the “blocking of SCF-induced phosphorylation, wild type cells” value (CD117) was “blocked” and the “blocking of SCF-dependent CD117 phosphorylation, D121K and S123K variants” value (variants of CD117) was “unaffected”.

B3: Refmab #1-Bert (antibody, V domains shown)
VH: B1 VH
VL: B1 VL with N96K
With B3 the “IC50 in a SCF-dependent proliferation assay on HSPC's” value (human wild-type CD117) was 31.3 ng/mL and the “IC50 in a SCF-dependent proliferation assay on TF-1 cells” value (human wild-type CD117) was 44.1 ng/mL.

B4: Y259P: variant of human CD117 with substitution Y259P (protein)
chain: QPSVSPGEPSPPSIHPGKSDLIVRVGDEIRLLCTDPGFVKWTFEILDETNENKQNEWITEKAEATNTGKYTCTNKHGLSNSIYVFVRDPAKLFLVDRSLYGKEDNDTLVRCPLTDPEVTNYSLKGCQGKPLPKDLRFIPDPKAGIMIKSVKRAYHRLCLHCSVDQEGKSVLSEKFILKVRPAFKAVPVVSVSKASYLLREGEEFTVTCTIKDVSSSVYSTWKRENSQTKLQEKPNSWHHGDFNYERQATLTISSARVNDSGVFMCYANNTFGSANVTTTLEVVDKG
With B4 the “KD increase of SCF binding compared to wild type CD117” value (SCF) was “less than three-fold; also recorded: less than four-fold” and the “binding to Refmab #3 compared to wild type CD117” value (Refmab #3) was “strong decrease in binding”.

B5: S239K: variant of human CD117 with substitution S239K (protein)
chain: B4 chain with S214K, P234Y
In the case of B5, the “binding to Refmab #2 compared to wild type CD117” value (Refmab #2) is reported as “strong decrease in binding”.

B6: R122H (receptor)
extracellular domains 1, 2 and 3: QPSVSPGEPSPPSIHPGKSDLIVRVGDEIRLLCTDPGFVKWTFEILDETNENKQNEWITEKAEATNTGKYTCTNKHGLSNSIYVFVRDPAKLFLVDHSLYGKEDNDTLVRCPLTDPEVTNYSLKGCQGKPLPKDLRFIPDPKAGIMIKSVKRAYHRLCLHCSVDQEGKSVLSEKFILKVRPAFKAVPVVSVSKASYLLREGEEFTVTCTIKDVSSSVYSTWKRENSQTKLQEKYNSWHHGDFNYERQATLTISSARVNDSGVFMCYANNTFGSANVTTTLEVVD
notes: not in the list MOLECULES; also called human CD117 D1-2-3 variant R122H
With B6 the “binding to Refmab #1 compared to wild type” value (antibody Refmab #1 [2]) was “particular strong decrease in binding”, the “binding to Refmab #2 compared to wild type CD117” value (Refmab #2) was “strong decrease in binding” and the binding result (Biotinylated Avitag-hSCF) was “binds”.
